# Laboratory results: PubChem BioAssay AID1963875 (Molecular Pharmacology Branch, DTP, NCI, 2024)
# Tested on: KRAS-mutant PDC complex spheroid viability
# Assay: Anticancer human tumor 186277-243-T-J2-PDC patient-derived colon adenocarcinoma cell line growth inhibition [KRAS2]
# Details: for IC50: curve of first compound; for viability, T/C: stronger effect = lower value
# Method in brief: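 KRAS-mutant tumor cells were grown as spheroids with HUVEC endothelial cells and human MSCs as stroma. Targeted agents were tested alone and with KRAS pathway inhibitors. Doses started at or near clinical Cmax, or 10 microM, descending half-log.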
# [1] = second compound 0.0316 µM, first compound 0.01 µM
# [2] = second compound 0.0316 µM, first compound 0.0316 µM
# [3] = second compound 0.0316 µM, first compound 0.1 µM
# [4] = second compound 0.1 µM, first compound 0.01 µM
# [5] = second compound 0.1 µM, first compound 0.0316 µM
# [6] = second compound 0.1 µM, first compound 0.1 µM
# [7] = second compound 0.316 µM, first compound 0.01 µM
# [8] = second compound 0.316 µM, first compound 0.0316 µM
# [9] = second compound 0.316 µM, first compound 0.1 µM
# [10] = second compound 1 µM, first compound 0.01 µM
# [11] = second compound 1 µM, first compound 0.0316 µM
# [12] = second compound 1 µM, first compound 0.1 µM
# [13] = second compound 3.16 µM, first compound 0.01 µM
# [14] = second compound 3.16 µM, first compound 0.0316 µM
# [15] = second compound 3.16 µM, first compound 0.1 µM
# 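For viability, T/C in this document: viability read after seven days of compound exposure; 100% = DMSO vehicle-treated spheroids so lower means less viable.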
Structure (SMILES),IC50 (second compound 0.0316 µM) [nM],IC50 (second compound 0.1 µM) [nM],IC50 (second compound 0.316 µM) [nM],IC50 (second compound 1 µM) [nM],IC50 (second compound 3.16 µM) [nM],"viability, T/C [1] [%]","viability, T/C [2] [%]","viability, T/C [3] [%]","viability, T/C [4] [%]","viability, T/C [5] [%]","viability, T/C [6] [%]","viability, T/C [7] [%]","viability, T/C [8] [%]","viability, T/C [9] [%]","viability, T/C [10] [%]","viability, T/C [11] [%]","viability, T/C [12] [%]","viability, T/C [13] [%]","viability, T/C [14] [%]","viability, T/C [15] [%]",also measured
CC(=O)OC12COC1CC(O)C1(C)C(=O)C(O)C3=C(C)C(OC(=O)C(O)C(NC(=O)OC(C)(C)C)c4ccccc4)CC(O)(C(OC(=O)c4ccccc4)C21)C3(C)C (stereo not given) + C=CC(=O)N1CCN(c2nc(OCC3CCCN3C)nc3c2CCN(c2cccc4cccc(C)c24)C3)CC1CC#N,< 10,< 10,< 10,< 10,< 10,5.4,3.51,2.98,4.93,3.47,3.22,3.71,3.26,3.24,4.4,4.12,3.41,4.54,3.92,3.17,"viability, T/C (second compound 0.0316 µM, first compound 0.316 µM): 2.96%; viability, T/C (second compound 0.0316 µM, first compound 1 µM): 3.29%; viability, T/C (second compound 0.0316 µM, first compound 3.16 µM): 3.21%; viability, T/C (second compound 0.1 µM, first compound 0.316 µM): 2.86%; viability, T/C (second compound 0.1 µM, first compound 1 µM): 3.09%; viability, T/C (second compound 0.1 µM, first compound 3.16 µM): 3.2%; viability, T/C (second compound 0.316 µM, first compound 0.316 µM): 2.85%; viability, T/C (second compound 0.316 µM, first compound 1 µM): 2.97%; viability, T/C (second compound 0.316 µM, first compound 3.16 µM): 3.26%; viability, T/C (second compound 1 µM, first compound 0.316 µM): 3%; viability, T/C (second compound 1 µM, first compound 1 µM): 3.17%; viability, T/C (second compound 1 µM, first compound 3.16 µM): 2.9%; viability, T/C (second compound 3.16 µM, first compound 0.316 µM): 3.26%; viability, T/C (second compound 3.16 µM, first compound 1 µM): 3.28%; viability, T/C (second compound 3.16 µM, first compound 3.16 µM): 3.25%"
CN(C)C/C=C/C(=O)Nc1cc2c(Nc3ccc(F)c(Cl)c3)ncnc2cc1O[C@H]1CCOC1 + C=CC(=O)N1CCN(c2nc(OCC3CCCN3C)nc3c2CCN(c2cccc4cccc(C)c24)C3)CC1CC#N,> 100,> 100,> 100,> 100,< 0.316,103,118,112,117,110,105,109,111,105,106,98.7,105,0.31,0.23,0.38,"viability, T/C (second compound 0.0316 µM, first compound 0.000316 µM): 98.6%; viability, T/C (second compound 0.0316 µM, first compound 0.001 µM): 106%; viability, T/C (second compound 0.0316 µM, first compound 0.00316 µM): 100%; viability, T/C (second compound 0.1 µM, first compound 0.000316 µM): 109%; viability, T/C (second compound 0.1 µM, first compound 0.001 µM): 95.5%; viability, T/C (second compound 0.1 µM, first compound 0.00316 µM): 94%; viability, T/C (second compound 0.316 µM, first compound 0.000316 µM): 102%; viability, T/C (second compound 0.316 µM, first compound 0.001 µM): 102%; viability, T/C (second compound 0.316 µM, first compound 0.00316 µM): 103%; viability, T/C (second compound 1 µM, first compound 0.000316 µM): 94.6%; viability, T/C (second compound 1 µM, first compound 0.001 µM): 94.5%; viability, T/C (second compound 1 µM, first compound 0.00316 µM): 112%; viability, T/C (second compound 3.16 µM, first compound 0.000316 µM): 0.97%; viability, T/C (second compound 3.16 µM, first compound 0.001 µM): 0.41%; viability, T/C (second compound 3.16 µM, first compound 0.00316 µM): 0.31%"
